This assay concerns autologous CD3+ Pan-T cells (CD8+ and CD4+ T cells) with peptide-pulsed CD1c+ Dendritic Cells. Briefly: Exogenous autologous normal donor restimulation assay (in vitro immunogenicity). Type of assay: cell-based, human. As to conditions: Table 25, pool of overlapping 15-mer peptides, maximum across normal donors; for Maximum Fold Change Over Background CD4+ cells: TNFα+IFNγ+ CD4+ T cells; for Maximum Fold Change Over Background CD4+ cells / Maximum Fold Change Over Background CD8+ cells: over negative control; for Maximum Fold Change Over Background CD8+ cells: TNFα+IFNγ+ CD8+ T cells. The method, then: CD1c+ Dendritic Cells (DC) isolated from human normal PBMCs were thawed using media (IMDM (Gibco) supplemented with glutamine, HEPES, 5% human serum (Sigma), and 1× Pen-Strep). DC cells were resuspended in media supplemented with IL-4 (Peprotech, 80 ng/mL) and GM-CSF (Gibco, 80 ng/mL), plated in 6 well microplates, and rested overnight at 37° C. (5% CO2). The following day, DC cells were counted and plated in a 96 well round bottom microplate at a concentration of 30,000 viable cells per well. Lyophilized peptides (15-mer overlapping peptides) were solubilized in 100% DMSO and pooled by neoantigen to between 5 mg/mL and 20 mg/mL. Neoantigen peptides pools were added to DCs for a final concentration of 2.5 μg/mL to 10 μg/mL and rested for 2 hours at 37° C. (5% CO2). CEF Peptide Pool “Plus” (Cellular Technologies, Ltd.) was utilized as a positive control and DMSO at the same final concentration as the experimental peptides was utilized as a negative control. After 2 hours, DC cells were irradiated with 50 gray of ionizing radiation. Autologous CD3+ Pan-T cells isolated from human normal PBMCs were thawed using media. Following irradiation, autologous Pan-T cells were added to the irradiated DCs at 300,000 viable cells per well. Human IL-15 (Peprotech) was added to all wells at final concentration of 10 ng/mL.
Plates were incubated at 37° C. (5% CO2) for a total of 12 days. Media was refreshed every 2-3 days with IL-15 (10 ng/mL final concentration) and IL-2 (R&D systems, 10 IU/mL final concentration). On day 11 cells were re-stimulated with identical experimental peptide pools or controls, at same concentration as peptide stimulation on Day 1. Protein Inhibitor Cocktail (eBioscience) was added to every well and plate was incubated overnight at 37° C. (5% CO2).
On day 12, cells were stained for intracellular flow cytometry analysis. The cells were washed with PBS and stained with Live/Dead Fixable Aqua Dead Cell stain (Thermo-Fisher). Following the live/dead stain, cells were blocked using Biotin-Free Fc Receptor Blocker (Accurate Chemical & Scientific Corp). Extracellular cellular flow panel (1 μL/antibody per well in 50 μL) consisted of CD3 PerCP-Cy5.5 (Biolegend), CD4 BV421 (Biolegend), and CD8 APC-Cy7 (Biolegend). After extracellular staining, cells were fixed using Foxp3/Transcription Factor Staining Buffer Set (eBioscience) and stained for intracellular proteins (1:50 dilution) using TNFα FITC (R&D Systems) and IFNγ BV785 (Biolegend). Cells were washed and resuspended in stain buffer and analyzed using a BD Celesta flow cytometer.
Flow cytometry cell staining analysis was completed using FlowJo v10. Cells were gated on live, singlet, CD3+ cells. The CD8+ and CD4+ T cells were analyzed for TNFα/IFNγ expression and the frequency of double positive TNFα/IFNγ CD8+ and the frequency of double positive TNFα/IFNγ CD4+ T cells were recorded. Responses were assessed to be positive when the frequency of double positive TNFα/IFNγ CD8+ or TNFα/IFNγ CD4+ T cells due to stimulation with an experimental peptide pool was increased greater than or equal to 3-fold over the DMSO only negative control for that donor and at least 0.01%.
Overlapping 15-mer peptides were designed to span each neoantigen incorporated into NeoGAd20 and NeoMVA to assess their ability to activate T cells using the exogenous autologous normal donor restimulation assay described in Example 1 as pools using TNFα and IFNγ production by CD8^+ and CD4^+ T cells as a readout.
Immunogenicity of various additional identified neoantigens was assessed. Overlapping 15-mer peptides were designed to span each neoantigen similarly to what was done in Example 11 to assess their ability to activate T cells using the exogenous autologous normal donor restimulation assay described in Example 1 as pools using TNFα and IFNγ production by CD8^+ and CD4^+ T cells as a readout.

SLYHREKQLIAMDSAI [Neoantigen P22]: the “Maximum Fold Change Over Background CD4+ cells” value was found to be 18.16, the “Maximum Fold Change Over Background CD8+ cells” value came out at 1.56, the “Maximum Frequency of TNFα/IFNγ Double Positive CD4+ T cells” value was 0.075 and the “Maximum Frequency of TNFα/IFNγ Double Positive CD8+ T cells” value is listed as 0.025.
Taken in the same sequence, the figures for “YEAGMTLGEKFRVGNCKHLKMTRP [Neoantigen P82]” were 4.44, 2.92, 0.17 and 0.09.
Taken in the same sequence, the figures for “YEAGMTLGGKILFFLFLLLPLSPFSLIF [Neoantigen P87]” were 7.86, 9.20, 0.110 and 0.460.
